Assay results taken from US11111242B2, “Pyrrolo[2,3-d]pyrimidinyl, pyrrolo[2,3-b]pyrazinyl and pyrrolo[2,3-d]pyridinyl acrylamides” (Pfizer Inc., priority 2013, dated 2021).
Read-outs that look alike come from different tables or passages of the source.

Columns and labels:
[1] = system: IL-15 induced STAT5 phosphorylation in Human Whole Blood (total lymphocytes); assay: HWB IL-15 Induced STAT5 Phosphorylation Assay; assay type: cell-based; details: Lymphocyte, IL-15 stimulated, read-out: HWB-IL15-pSTAT5 IC50
Experimental: HWB IL-15 Induced STAT5 Phosphorylation Assay
After mixing and incubating for 45 minutes at 37° C., 5 μl D-PBS (unstimulated control) or 20× stocks of 5 μl human IL-15 (final concentration is 50 ng/ml) were added, and mixed three times. After incubating 15 minutes at 37° C., 1× Lyse/Fix Buffer (BD Phosflow 5× Lyse/Fix Buffer) was added to all wells at 1000 μl/well, then incubated for 20 minutes at 37° C. and spun 5 mins at 1200 rpm. […] Following incubating at 4° C. over night, all the samples were transferred to 96-well polypropylene U-bottom plate, and checked by flow cytometry gated on total lymphocytes.

[2] = system: IL-15 induced P-STAT5 in human PBMC (total lymphocytes); assay: PBMC IL-15 Induced P-STAT5; assay type: cell-based; details: IL-15 stimulated, read-out: PBMC IL15-pSTAT5 IC50
Procedure, shortened: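 Thawed human PBMC in RPMI, preincubated 30 min at 37 °C, then IL-15 stimulated. Cells methanol-permeabilized (90%, on ice 20 min) and stained for phospho-STAT5. Read by flow cytometry, gated on total lymphocytes.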

Structure (SMILES) | IC50 [1] [nM] | IC50 [2] [nM] | IC50 ([2]; Homo sapiens, PBMC) [nM]
C=CC(=O)N1CCC(Nc2cnc3[nH]cc(C(=O)N[C@@H]4CCC[C@@H]4F)c3n2)CC1 [Example 251, 2-[(1-acryloylpiperidin-4-yl)amino]-N-[(1R,2S)-2-fluorocyclopentyl]-5H-pyrrolo[2,3-b]pyrazine-7-carboxamide] | 810 | 73.9 | –
C=CC(=O)N1C[C@H](Nc2ncnc3[nH]ccc23)CC[C@@H]1CC (single isomer, unassigned) [Example 9] | 578 | – | 35.5
C=CC(=O)N1C[C@H](C#N)C[C@@H](Nc2ncnc3[nH]ccc23)C1 [Example 6, (3R,5R)-5-((7H-pyrrolo[2,3-d]pyrimidin-4-yl)amino)-1-acryloylpiperidine-3-carbonitrile] | 870 | 45.8 | –
C=CC(=O)N1C[C@H](Nc2ncnc3[nH]cc(Cl)c23)CC[C@@H]1C [Example 18, 1-((2S,5R)-5-((5-Chloro-7H-pyrrolo[2,3-d]pyrimidin-4-yl)amino)-2-methylpiperidin-1-yl)prop-2-en-1-one] | 555 | 31.5 | –
C=CC(=O)N1CCC(Nc2cnc3[nH]cc(C(=O)NC4CC(F)C4)c3n2)CC1 (stereo not shown) [Example 243, 2-[(1-acryloylpiperidin-4-yl)amino]-N-(3-fluorocyclobutyl)-5H-pyrrolo[2,3-b]pyrazine-7-carboxamide] | 617 | 155 | –
C=CC(=O)N1CCC(Nc2cnc3[nH]cc(C(=O)NC(C)(C)CC)c3n2)CC1 [Example 276, 2-[(1-acryloylpiperidin-4-yl)amino]-N-(2-methylbutan-2-yl)-5H-pyrrolo[2,3-b]pyrazine-7-carboxamide] | 487 | 57.8 | –
C=CC(=O)N1CCC(Nc2cnc3[nH]cc(C(=O)NC4CC(F)(F)C4)c3n2)CC1 [Example 245, 2-[(1-acryloylpiperidin-4-yl)amino]-N-(3,3-difluorocyclobutyl)-5H-pyrrolo[2,3-b]pyrazine-7-carboxamide] | 901 | 228 | –
C=CC(=O)N1C[C@@H](C#N)C[C@@H](Nc2ncnc3[nH]ccc23)C1 [Example 58, (3S,5R)-5-((7H-pyrrolo[2,3-d]pyrimidin-4-yl)amino)-1-acryloylpiperidine-3-carbonitrile] | 7840 | 2790 | –
C=CC(=O)N1CCC(Nc2cnc3[nH]cc(-c4cncnc4)c3n2)CC1 [Example 202, 1-(4-{[7-(pyrimidin-5-yl)-5H-pyrrolo[2,3-b]pyrazin-2-yl]amino}piperidin-1-yl)prop-2-en-1-one] | 3740 | 670 | –
C=CC(=O)N1C[C@H](O)C[C@@H](Nc2ncnc3[nH]ccc23)C1 [Example 60, 1-((3R,5R)-3-((7H-Pyrrolo[2,3-d]pyrimidin-4-yl)amino)-5-hydroxypiperidin-1-yl)prop-2-en-1-one] | 2780 | – | 2470
C=CC(=O)N1CCC(Nc2cnc3[nH]cc(C(=O)N[C@@H](C)CC)c3n2)CC1 [Example 285, 2-[(1-acryloylpiperidin-4-yl)amino]-N-[(2S)-butan-2-yl]-5H-pyrrolo[2,3-b]pyrazine-7-carboxamide] | 373 | 31.4 | –
C=CC(=O)N1CCC(Nc2cnc3[nH]cc(-c4cccnc4)c3n2)CC1 [Example 205, 1-(4-{[7-(pyridin-3-yl)-5H-pyrrolo[2,3-b]pyrazin-2-yl]amino}piperidin-1-yl)prop-2-en-1-one] | 1880 | 219 | –
C=CC(=O)N1CCC(Nc2cnc3[nH]cc(-c4cnc(OC)nc4)c3n2)CC1 [Example 210, 1-(4-{[7-(2-methoxypyrimidin-5-yl)-5H-pyrrolo[2,3-b]pyrazin-2-yl]amino}piperidin-1-yl)prop-2-en-1-one] | 2680 | – | 462
C=CC(=O)N1C[C@H](Nc2ncnc3[nH]ccc23)CCC1(C)C (single isomer, unassigned) [Example 61] | 1870 | – | 1030
C=CC(=O)N1CCC(Nc2cnc3[nH]cc(C(=O)NC4CCCC(F)(F)C4)c3n2)CC1 (stereo not shown) [Example 236, 2-[(1-acryloylpiperidin-4-yl)amino]-N-(3,3-difluorocyclohexyl)-5H-pyrrolo[2,3-b]pyrazine-7-carboxamide] | 438 | 142 | –
C=CC(=O)N1CCC(Nc2cnc3[nH]cc(C(=O)NC(C)C)c3n2)CC1 [Example 168, 2-[(1-acryloylpiperidin-4-yl)amino]-N-(propan-2-yl)-5H-pyrrolo[2,3-b]pyrazine-7-carboxamide] | 136 | – | 37.1

Structure (SMILES) | IC50 [1] [nM] | IC50 [2] [nM] | IC50 ([2]; Homo sapiens, PBMC) [nM]
C=CC(=O)N1CCC(Nc2cnc3[nH]cc(C(=O)N[C@H](C)CC)c3n2)CC1 [Example 289, 2-[(1-acryloylpiperidin-4-yl)amino]-N-[(2R)-butan-2-yl]-5H-pyrrolo[2,3-b]pyrazine-7-carboxamide] | 106 | 37.5 | –
C=CC(=O)N1CC[C@@H](Nc2cnc3[nH]cc(C(=O)NC(C)C)c3n2)[C@@H](F)C1 [Example 320, 2-{[(3S,4R)-1-acryloyl-3-fluoropiperidin-4-yl]amino}-N-(propan-2-yl)-5H-pyrrolo[2,3-b]pyrazine-7-carboxamide] | 343 | 61.1 | –
C=CC(=O)N1CCN(c2cnc3[nH]cc(C(=O)NC(C)C)c3n2)C[C@@H]1CC [Example 299, 2-[(3S)-4-acryloyl-3-ethylpiperazin-1-yl]-N-(propan-2-yl)-5H-pyrrolo[2,3-b]pyrazine-7-carboxamide] | 1380 | 225 | –
C=CC(=O)N1C[C@H](Nc2ccnc3[nH]cc(C#N)c23)CC[C@@H]1C [Example 165, 4-{[(3R,6S)-1-Acryloyl-6-methylpiperidin-3-yl]amino}-1H-pyrrolo[2,3-b]pyridine-3-carbonitrile] | 380 | – | 40.6
C=CC(=O)N1CCC[C@@H](Nc2ncnc3[nH]cc(CC)c23)C1 [Example 44, 1-{(3R)-3-[(5-ethyl-7H-pyrrolo[2,3-d]pyrimidin-4-yl)amino]piperidin-1-yl}prop-2-en-1-one] | 1180 | 320 | –
C=CC(=O)N1CC[C@H](C)[C@@H](Nc2ncnc3[nH]ccc23)C1 [Example 11, 1-((3R,4S)-3-((7H-pyrrolo[2,3-d]pyrimidin-4-yl)amino)-4-methylpiperidin-1-yl)prop-2-en-1-one] | 363 | – | 97.9
C=CC(=O)N1CCN(c2cnc3[nH]cc(C(=O)NC(C)C)c3n2)CC1 [Example 174, 2-(4-acryloylpiperazin-1-yl)-N-(propan-2-yl)-5H-pyrrolo[2,3-b]pyrazine-7-carboxamide] | 623 | 58.4 | –
C=CC(=O)N1CC(Nc2cnc3[nH]cc(C(=O)NC(C)C)c3n2)C1 [Example 188, 2-[(1-acryloylazetidin-3-yl)amino]-N-(propan-2-yl)-5H-pyrrolo[2,3-b]pyrazine-7-carboxamide] | 246 | – | 155
C=CC(=O)N1CCC(Nc2cnc3[nH]cc(C(=O)N[C@@H](C)COC)c3n2)CC1 [Example 277, 2-[(1-acryloylpiperidin-4-yl)amino]-N-[(2S)-1-methoxypropan-2-yl]-5H-pyrrolo[2,3-b]pyrazine-7-carboxamide] | 83.2 | – | 103
C=CC(=O)N1CCC(Nc2cnc3[nH]cc(C(=O)N[C@H](C)COC)c3n2)CC1 [Example 268, 2-[(1-acryloylpiperidin-4-yl)amino]-N-[(2R)-1-methoxypropan-2-yl]-5H-pyrrolo[2,3-b]pyrazine-7-carboxamide] | 263 | – | 43.4
C=CC(=O)N1CCC(Nc2cnc3[nH]cc(C(=O)N[C@@H]4CC[C@H](F)C4)c3n2)CC1 [Example 255, 2-[(1-acryloylpiperidin-4-yl)amino]-N-[(1R,3S)-3-fluorocyclopentyl]-5H-pyrrolo[2,3-b]pyrazine-7-carboxamide] | 818 | – | 130
C=CC(=O)N1CCC(Nc2cnc3[nH]cc(C(=O)NCC4CCCC4)c3n2)CC1 [Example 270, 2-[(1-acryloylpiperidin-4-yl)amino]-N-(cyclopentylmethyl)-5H-pyrrolo[2,3-b]pyrazine-7-carboxamide] | 1220 | – | 53.6
C=CC(=O)N1CCC(Nc2cnc3[nH]cc(C(=O)NCCCC(F)(F)F)c3n2)CC1 [Example 240, 2-[(1-acryloylpiperidin-4-yl)amino]-N-(4,4,4-trifluorobutyl)-5H-pyrrolo[2,3-b]pyrazine-7-carboxamide] | 442 | 83.8 | –
C=CC(=O)N1CCC(Nc2cnc3[nH]cc(C(=O)NC4CCC4)c3n2)CC1 [Example 280, 2-[(1-acryloylpiperidin-4-yl)amino]-N-cyclobutyl-5H-pyrrolo[2,3-b]pyrazine-7-carboxamide] | 376 | 39.4 | –
C=CC(=O)N1CC[C@@H](Nc2cnc3[nH]cc(C(=O)NC(C)C)c3n2)[C@@H](OC)C1 [Example 302, 2-{[(3S,4R)-1-acryloyl-3-methoxypiperidin-4-yl]amino}-N-(propan-2-yl)-5H-pyrrolo[2,3-b]pyrazine-7-carboxamide] | 1310 | 264 | –
C=CC(=O)N1CCC(Nc2cnc3[nH]cc(C(=O)N[C@H]4CC[C@H](F)C4)c3n2)CC1 [Example 247, 2-[(1-acryloylpiperidin-4-yl)amino]-N-[(1S,3S)-3-fluorocyclopentyl]-5H-pyrrolo[2,3-b]pyrazine-7-carboxamide] | 651 | – | 141
